Inhibition and IC50 data for 67 compounds are collected here from patent US12617777B2, “GPR84 antagonists and uses thereof” (Liminal BioSciences Limited, priority 2021, dated 2026).

In this assay the target is T1, human GPR84 receptor (Homo sapiens, UniProt Q9NQS5).
T1 construct: host or cells: HEK293, transient transfection
As to the kind of experiment: Gαi biosensor BRET assay in HEK293 cells (antagonism of ZQ-16). In kind it is cell-based. As to conditions: for inhibition at 10 µM: HEK293, single concentration 10 μM (designated F); for inhibition at 25 µM: HEK293, single concentration 25 μM (designated I); for inhibition at 2 µM: HEK293, single concentration 2 μM (designated A); for IC50: HEK293 cells, antagonism of 200 nmol/L ZQ-16. The procedure, abridged: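 HEK293 cells transiently expressing human GPR84, Gαi2-Rluc8, GFP10-Gγ2 and Gβ1, in Tyrode's buffer pH 7.5. Compounds preincubated 5 min at 37° C, then 200 nmol/L ZQ-16 for 5 min at room temperature; coelenterazine 400A 5 μmol/L. BRET2 acceptor/donor ratio, background- and vehicle-corrected net BRET.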

T1 sequence (Q9NQS5 whole entry): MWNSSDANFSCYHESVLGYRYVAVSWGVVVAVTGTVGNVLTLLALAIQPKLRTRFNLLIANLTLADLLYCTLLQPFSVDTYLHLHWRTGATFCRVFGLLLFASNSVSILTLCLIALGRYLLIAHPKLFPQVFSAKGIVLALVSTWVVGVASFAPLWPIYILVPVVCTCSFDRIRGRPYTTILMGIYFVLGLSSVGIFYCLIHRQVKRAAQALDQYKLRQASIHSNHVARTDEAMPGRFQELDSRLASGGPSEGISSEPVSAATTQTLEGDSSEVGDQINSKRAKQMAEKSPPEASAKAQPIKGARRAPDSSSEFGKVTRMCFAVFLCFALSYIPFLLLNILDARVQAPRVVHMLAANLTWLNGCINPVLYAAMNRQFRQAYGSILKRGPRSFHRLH

As a reminder, the inhibition is the drop in the measured response relative to a control, in per cent. Low values mean little suppression, high ones strong suppression. Take `Cc1noc(COc2ccc(-c3cn(CC4CCCCO4)nn3)c(C)c2)n1` (centres unmarked) [Compound I-469]: the inhibition at 10 µM was at most 25%.

Consider `Cc1cc(C#CC2CC2)ccc1-c1cn(C[C@H]2CC[C@@H](C)O2)nn1` [Compound I-225], for which the inhibition at 10 µM lay in the range of 25 to 50%.

On to `C(#CC1CC1)c1ccc(-c2cn(CCOCC3COCCO3)nn2)cc1` (centres unmarked) [Compound I-93], for which the inhibition at 10 µM is at most 25%.

`CC1(C)COC(Cn2cc(-c3ncc(C#CC4CC4)cc3C(F)F)nn2)OC1` [Compound I-736] displayed an inhibition at 10 µM of at most 25%.

`Cc1cc(C#CC2CC2)ccc1-c1cn(CC2CNC(=O)O2)nn1` (centres unmarked) [Compound I-458] had an inhibition at 10 µM of at most 25%.

Regarding `C(#CC1CC1)c1ccc(-c2cn(C[C@H]3COc4ccccc4O3)nn2)cc1` [Compound I-23], the inhibition at 25 µM was at most 25%.

By IC50 is commonly meant the midpoint of a concentration-inhibition curve. A higher IC50 goes with weaker potency in that assay. In turn, `C(#CC1CC1)c1cnc(-c2cn(C[C@H]3CCCCO3)nn2)c(OC2CC2)c1` [Compound I-701] registered an inhibition at 2 µM of over 75% and an IC50 of at most 0.3 µM.

With `Cc1cc(C#CC2CC2)ccc1-c1cn(CC(O)CO)nn1` (centres unmarked) [Compound I-224], the inhibition at 10 µM lay within 25 to 50%.

`CN(C)c1cc(C#CC2CC2)cnc1-c1cn(CC2CCCCO2)nn1` (centres unmarked) [Compound I-518]: the inhibition at 10 µM was over 75% and the IC50 lay within 1 to 3 µM.

Take `Cc1cc(C#CC2CC2)ccc1-c1cn(CC2OCC3(CC3)CO2)nn1` [Compound I-686]: the inhibition at 10 µM was over 75% and the half-inhibitory concentration (IC50) lay in the range of 0.3 to 1 µM.

With `C[C@@H]1Cc2oc(C(=O)NCc3cnc(C4CC4)cn3)c(C(F)(F)F)c2-c2nn(C[C@H]3COCCO3)cc21` [Compound I-775], the 50% inhibitory concentration (IC50) was at most 0.3 µM.

On to `Cc1cc(C#CC2CC2)ccc1-c1cn(CC2OCCCO2)nn1` [Compound I-91], for which the IC50 fell in the range of 1 to 3 µM.

With `Cc1ccccc1-c1cn(CC2CCCCO2)nn1` (centres unmarked) [Compound I-467], the inhibition at 10 µM is at most 25%.

For `Cc1cc(OCC(F)(F)F)cnc1-c1cn(CC2OCC(C)(C)O2)nn1` (centres unmarked) [Compound I-639], the inhibition at 10 µM was at most 25%.

On to `Cc1cc(C#CC2CC2)ccc1-c1cn(CC2Cc3ccccc3O2)nn1` (centres unmarked) [Compound I-363], for which, where the note is “HEK293, single concentration 3 μM (designated B)”, the inhibition at 3 µM is 25 to 50%.

As for `CCc1ccc(C#CC2CC2)cc1Cc1cn(CC2CCCCO2)nn1` (centres unmarked) [Compound I-475], the inhibition at 2 µM fell in the range of 25 to 50%.

Compound `Cc1cc(N2CCN(C(C)c3ccccn3)CC2)ccc1-c1cn(CC2OCC(C)(C)CO2)cn1` (centres unmarked) [Compound I-828] returned an inhibition at 10 µM of 50 to 75% and a concentration for half-maximal inhibition (IC50) of 0.3 to 1 µM.

`COCCn1cc(-c2ccc(C#CC3CC3)cc2)nn1` [Compound I-103] showed an inhibition at 10 µM of at most 25%.

As to `COc1cc(-c2cn(C[C@H]3CCCCO3)nn2)c(C)cc1N1CC(C)(C)C1` [Compound I-422], the inhibition at 10 µM is at most 25%.

`Cc1cc(C#CCNC(=O)OC(C)C)cnc1-c1cn(CC2CCCCO2)nn1` (centres unmarked) [Compound I-570, isopropyl (3-(5-methyl-6-(1-((tetrahydro-2H-pyran-2-yl)methyl)-1H-1,2,3-triazol-4-yl)pyridin-3-yl)prop-2-yn-1-yl)carbamate] gave an inhibition at 10 µM of over 75% and an IC50 of over 3 µM.

For the compound `Cc1ccc(N2CC(C)(C)C2)cc1Cc1cn(CC2CCCCO2)nn1` (centres unmarked) [Compound I-443], the inhibition at 10 µM was at most 25%.

Turning to `Cc1cc(C#CC2CC2)ccc1-n1cc(CC2CCOCC2)nn1` [Compound I-269], the inhibition at 10 µM is at most 25%.

The compound `Cc1cc(C2CCN(Cc3ccccn3)CC2)ccc1-c1cn(CC2CCCCO2)nn1` (centres unmarked) [Compound I-440] returned an inhibition at 10 µM of at most 25%.

`Cc1cc(C2CCN(c3ccccn3)CC2)ccc1-c1cn(CC2CCCCO2)nn1` (centres unmarked) [Compound I-583]: the inhibition at 10 µM was at most 25%.

`Cc1c(-c2ccc(C#CC3CC3)cc2)nnn1C[C@H]1CCCCO1` [Compound I-29] registered an inhibition at 25 µM of 50 to 75%.

Consider `C(#CC1CC1)c1ccc(-c2cn(C[C@H]3COCCO3)nn2)cc1` [Compound I-22], for which the inhibition at 25 µM was at most 25%.

As to `Cc1cc(N2CCN(Cc3ncco3)CC2)ccc1-c1cn(CC2CCCCO2)nn1` (centres unmarked) [Compound I-579], the inhibition at 10 µM was over 75%.

With `CNC1CN(c2ccc(-c3cn(CC4CCCCO4)nn3)c(C)c2)C1` (centres unmarked) [Compound I-184], the inhibition at 10 µM was at most 25%.

`Cc1cc(C#CC2CC2)ccc1-c1cn(CC2OCc3ccccc32)nn1` (centres unmarked) [Compound I-100] returned an inhibition at 10 µM of at most 25%.

In turn, `COC(C)(C)Cn1cc(-c2ccc(C#CCNc3ccccc3)cc2C)nn1` [Compound I-163] came in with an inhibition at 10 µM of at most 25%.

Take `Cc1cc(C#CC2CC2)cnc1-c1cn(CC2CC(C)(C)O2)nn1` (centres unmarked) [Compound I-420]: the inhibition at 10 µM lay in the range of 50 to 75%.

`Cc1cccc(-c2cn(CC#Cc3ccc(-c4cn(CC5CCCCO5)nn4)c(C)c3)nn2)c1` (centres unmarked) [Compound I-492] had an inhibition at 10 µM of over 75% and a concentration for half-maximal inhibition (IC50) of at most 0.3 µM.

`Cc1cc(N2CCN([C@H](C)c3ccccn3)CC2)ccc1-c1cn(C[C@H]2CCCCO2)nn1` [Compound I-611] had an inhibition at 10 µM of 25 to 50%.

Compound `Cc1cc(N2CCN(Cc3ccccn3)CC2)ccc1-c1cn(CC2OCC3(CC3)CO2)cn1` [Compound I-795] had an inhibition at 10 µM of 25 to 50% and an IC50 of at most 0.3 µM.

`Cc1cc(C#CC2CC2)ccc1-c1cn(CC2OCC(c3ccccc3)CO2)nn1` (centres unmarked) [Compound I-704] had an inhibition at 10 µM of at most 25%.

Turning to `COc1ccc(C#CC2CC2)cc1-c1cn(CC2CCCCO2)nn1` (centres unmarked) [Compound I-125], the inhibition at 10 µM is at most 25%.

As for `C(#CC1CC1)c1csc(-c2cn(CC3CCCCO3)nn2)n1` (centres unmarked) [Compound I-241], the inhibition at 10 µM was at most 25%.

For the compound `COC(C)(c1cn(CC2CCCCO2)nn1)c1cc(C#CC2CC2)ccc1C` (centres unmarked) [Compound I-680], the inhibition at 10 µM is 50 to 75%.

The compound `CN(C)c1cc(N2CC(C)(CO)C2)ccc1-c1cn(CC2OCC3(CC3)CO2)nn1` [Compound I-748] gave an inhibition at 2 µM of over 75% and an IC50 of at most 0.3 µM.

For the compound `CC(C)Oc1cc(N2CC(C)(CO)C2)cnc1-c1cn(CC2OCC(C)(C)CO2)nn1` [Compound I-694], the inhibition at 10 µM was over 75%.

`Cc1cc(C#CC2CC2)ccc1-c1cn(CC2COCCN2)nn1` (centres unmarked) [Compound I-515] displayed an inhibition at 10 µM of at most 25%.

`Cc1cc(C2CCCN(Cc3ccccn3)C2)ccc1-c1cn(CC2CCCCO2)nn1` (centres unmarked) [Compound I-546] came in with an inhibition at 10 µM of 50 to 75%.

In turn, `C[S+]([O-])c1cc(C#CC2CC2)ccc1-c1cn(CC2CCCCO2)nn1` (centres unmarked) [Compound I-218] had an inhibition at 10 µM of at most 25%.

In turn, `Cc1cc(C#CC2CC2)ccc1-n1cc(CN2CCOCC2)nn1` [Compound I-297] came in with an inhibition at 25 µM of at most 25%.

Compound `Cc1cc(C(=O)NCC2CC2)ccc1-c1cn(CC2CCCCO2)nn1` (centres unmarked) [Compound I-357] registered an inhibition at 10 µM of 50 to 75%.

For `Cc1ccc(C#N)cc1N(C)c1cn(CC2OCC(C)(C)CO2)nn1` [Compound I-811], the inhibition at 10 µM was at most 25%.

`COC(=O)NCC#Cc1ccc(-c2cn(CC3CCCCO3)nn2)c(C)c1` (centres unmarked) [Compound I-607] yielded an inhibition at 10 µM of 25 to 50%.

Compound `CCc1cc(C#CC2CC2)cnc1-c1cn(CC2CCOCC2)nn1` [Compound I-274] returned an inhibition at 10 µM of 50 to 75%.

Take `FC(F)(F)c1ccc(C#CC2CC2)cc1-c1cn(CC2CCCCO2)nn1` (centres unmarked) [Compound I-179]: the inhibition at 10 µM is 25 to 50%.

Compound `CC(=O)N1CCN(c2ccc(-c3cn(CC4CCCCO4)nn3)c(C)c2)CC1` (centres unmarked) [Compound I-112] registered an inhibition at 10 µM of at most 25%.

Take `Cc1cc(N2CC3(CN(c4cccnc4)C3)C2)ccc1-c1cn(CC2OCC(C)(C)CO2)nn1` [Compound I-684]: the inhibition at 10 µM was over 75%.

`CC1(CO)CN(c2cnc(-c3cn(CC4OCC5(CCC5)O4)nn3)c(OCC(F)(F)F)c2)C1` (centres unmarked) [Compound I-816] came in with an inhibition at 10 µM of over 75%.

Consider `C=C(c1cn(C[C@H]2CCCCO2)nn1)c1cccc(C#CC2CC2)c1C` [Compound I-742], for which the inhibition at 10 µM was over 75%.

Regarding `Cc1cc(C#CC2CC2)ccc1-c1cn(CC2CCCC(=O)N2)nn1` (centres unmarked) [Compound I-516], the inhibition at 10 µM is at most 25%.

Take `Cc1cc(C#CCNc2ccccc2)ccc1-c1cn(CCC2CCCCO2)nn1` (centres unmarked) [Compound I-306]: the inhibition at 10 µM lay within 25 to 50%.

For `CC1(C)COC(Cn2cnc(-c3ncc(C#CCN4CC(C)(C)C4)cc3OC3CC3)c2)OC1` [Compound I-845], the inhibition at 10 µM was over 75%.

Consider `CC(C)(O)c1cc(C#CC2CC2)ccc1-c1cn(CC2CCCCO2)nn1` (centres unmarked) [Compound I-229], for which the inhibition at 10 µM was at most 25%.

With `CCc1cc(C#CCN(C)C)ccc1-c1cn(CC2OCC(C)(C)CO2)nn1` [Compound I-852], the inhibition at 2 µM is over 75%.

`Cc1cc(N2CC(C(C)(C)O)C2)ccc1-c1cn(CC2CCCCO2)nn1` (centres unmarked) [Compound I-477] gave an inhibition at 10 µM of 50 to 75%.

Regarding `Cc1cc(C#CC2CC2)ccc1-c1cn(CC2CCCCO2)cn1` (centres unmarked) [Compound I-341], the inhibition at 10 µM lay within 50 to 75%.

`Cc1cc(C#CC2CC2)ccc1-c1cn(Cc2ncco2)nn1` [Compound I-143] displayed an inhibition at 10 µM of at most 25%.

The compound `Cc1cc(N2CCN(c3ccncc3)CC2)ccc1-c1cn(CC2CCCCO2)nn1` (centres unmarked) [Compound I-563] came in with an inhibition at 10 µM of at most 25%.

Compound `Cc1c(C#CC2CC2)cccc1-c1cn(CC2CCCCO2)nn1` (centres unmarked) [Compound I-80] registered an inhibition at 25 µM of at most 25%.

With `N#Cc1cc(C#CC2CC2)ccc1-c1cn(CC2CCCCO2)nn1` (centres unmarked) [Compound I-133], the inhibition at 10 µM lay within 50 to 75%.

`CC1(C)COC(Cn2cnc(-c3ncc(C#CC4CC4)cc3OC3CC3)c2)OC1` [Compound I-831] registered an inhibition at 2 µM of over 75% and an IC50 of at most 0.3 µM.

`Cc1cc(C#CC2CC2)ccc1-c1cn(CCOCC2CCCCO2)nn1` (centres unmarked) [Compound I-85] registered an inhibition at 25 µM of 25 to 50%.

Consider `Cc1ccc(C#CC2CC2)cc1C(CC(F)(F)F)c1cn(CC2OCC(C)(C)CO2)nn1` (centres unmarked) [Compound I-681], for which the inhibition at 2 µM was over 75% and the concentration for half-maximal inhibition (IC50) lay in the range of 0.3 to 1 µM.
